In patent publication US10258042B2, “Substituted pyrazolylpyrazole derivative and use of same as herbicide” (KYOYU AGRI CO., LTD., priority 2015, dated 2019):

How the values were obtained:
Assay type in all cases: in vivo
Oryza sativa = experiment: Paddy herbicidal activity test, phytotoxicity to transplanted rice; details: rice plants in the 2.0 leaf stage transplanted, 30 days, 30° C.
Experimental: (§1) Rice paddy soil was filled into a 1/10000 are pot followed by the addition of suitable amounts of water and chemical fertilizer, kneading, seeding with Echinochloa crus-galli, Monochoria vaginalis and Scirpus juncoides and maintaining in an irrigated state at a water depth of 3 cm.
(§2) Wettable powders of Target Compound (I) shown in Table 1 prepared in compliance with the preparation examples were diluted with a suitable amount of water, rice plants in the 2.0 leaf stage were transplanted during 3.5 leaf stage of Echinochloa crus-galli, and treated by dropping in chemical in the prescribed amount per 10 are using a pipette.
(§3) After treating for 30 days in a glass greenhouse at an average atmospheric temperature of 30° C., the herbicidal efficacy thereof was investigated.
(§4) Evaluation of herbicidal efficacy was carried out by comparing growth inhibition rate (%) with an untreated group, while evaluation of phytotoxicity was carried out by comparing growth inhibition rate (%) with the state of a complete eradication group, and were evaluated at 11 levels indicated below.

Digitaria ciliaris [1] = experiment: Weed foliar treatment test (Test Example 4, higher leaf stage); details: 10 g a.i./10a; foliar spray at 4.0 to 5.0 leaf stage of Digitaria ciliaris (plant height 10 cm to 15 cm); 20 days, 25° C.
Experimental: (§5) Field soil was filled into a 1/4500 are pot followed by seeding with Digitaria ciliaris and Galinsoga parviflora, covering with soil and cultivating in a glass greenhouse at an average atmospheric temperature of 25° C.
(§6) Wettable powders of Target Compound (I) shown in Table 1 prepared in compliance with the preparation examples were diluted with water to the prescribed amount of chemical and uniformly sprayed onto the weeds using 100 liters of sprayed water per 10 are when Digitaria ciliaris had grown to the 4.0 to 5.0 leaf stage (plant height: 10 cm to 15 cm).
(§7) After treating for 20 days in a glass greenhouse at an average atmospheric temperature of 25° C., the herbicidal efficacy thereof was investigated.
(§8) Evaluation of herbicidal efficacy was carried out in the same manner as the above-mentioned Test Example 1.

Galinsoga parviflora = experiment: as above; details: 10 g a.i./10a; foliar spray at 4.0 to 5.0 leaf stage of Digitaria ciliaris; 20 days, 25° C.
Experimental: as §5, §6, §7, §8

Echinochloa crus-galli = experiment: Paddy herbicidal activity test; details: irrigated paddy pot, treated at 3.5 leaf stage of Echinochloa crus-galli, 30 days, 30° C.
Experimental: as §1, §2, §3, §4

Monochoria vaginalis = experiment: Paddy herbicidal activity test; details: irrigated paddy pot, 30 days, 30° C.
Experimental: as §1, §2, §3, §4

Scirpus juncoides = experiment: Paddy herbicidal activity test; details: irrigated paddy pot, 30 days, 30° C.
Experimental: as §1, §2, §3, §4

Digitaria ciliaris [2] = experiment: Weed foliar treatment test (Test Example 3); details: foliar spray at 1.0 to 2.0 leaf stage of Digitaria ciliaris, 3 weeks, 25° C.
Experimental: (§9) Soil was filled into a 1/6000 are pot followed by seeding with Digitaria ciliaris, Chenopodium album and Amaranthus retroflexus, covering with soil, and cultivating in a glass greenhouse at an average atmospheric temperature of 25° C.
as §6, with “150” for “100”, “1.0” for “4.0”, “2.0” for “5.0”, “stage.” for “stage (plant height: 10 cm to 15 cm).”
(§10) After treating for 3 weeks in a glass greenhouse at an average atmospheric temperature of 25° C., the herbicidal efficacy thereof was investigated.
as §8

Amaranthus retroflexus [3] = experiment: Weed foliar treatment test (Test Example 3); details: foliar spray at 1.0 to 2.0 leaf stage of Digitaria ciliaris, 3 weeks, 25° C.
Experimental: as §9
as §6, with “150” for “100”, “1.0” for “4.0”, “2.0” for “5.0”, “stage.” for “stage (plant height: 10 cm to 15 cm).”
as §10, §8

Chenopodium album [4] = experiment: Weed foliar treatment test (Test Example 3); details: foliar spray at 1.0 to 2.0 leaf stage of Digitaria ciliaris, 3 weeks, 25° C.; for herbicidal efficacy, Chenopodium alubum: 5 g a.i./10a; for herbicidal efficacy, Chenopodium album: 10 g a.i./10a
Experimental: as §9
as §6, with “150” for “100”, “1.0” for “4.0”, “2.0” for “5.0”, “stage.” for “stage (plant height: 10 cm to 15 cm).”
as §10, §8

Digitaria ciliaris [5] = experiment: Farming soil treatment test; details: soil surface spray prior to weed growth, 30 days, 30° C.
Experimental: (§11) Field soil was filled into a 1/6000 are pot followed by seeding with Digitaria ciliaris, Chenopodium album and Amaranthus retroflexus and covering with soil.
(§12) Wettable powders of compounds of formula (I) shown in Table 1 prepared in compliance with the preparation examples were diluted with water to the prescribed amount of chemical and uniformly sprayed onto each soil surface layer using 100 liters of sprayed water per 10 are prior to weed growth following seeding.
as §3
(§13) Evaluation of herbicidal efficacy was carried out in the same manner as the above-mentioned Test Example 1,

Amaranthus retroflexus [6] = experiment: Farming soil treatment test; details: soil surface spray prior to weed growth, 30 days, 30° C.
Experimental: as §11, §12, §3, §13

Chenopodium album [7] = experiment: Farming soil treatment test; details: soil surface spray prior to weed growth, 30 days, 30° C.
Experimental: as §11, §12, §3, §13

Structure (SMILES)	phytotoxicity, Oryza sativa (Oryza sativa; 1 g a.i./10a)	phytotoxicity, Oryza sativa (Oryza sativa; 5 g a.i./10a)	herbicidal efficacy, Digitaria ciliaris (Digitaria ciliaris [1])	herbicidal efficacy, Galinsoga parviflora (Galinsoga parviflora)	herbicidal efficacy, Echinochloa crus-galli (Echinochloa crus-galli; 1 g a.i./10a)	herbicidal efficacy, Echinochloa crus-galli (Echinochloa crus-galli; 5 g a.i./10a)	herbicidal efficacy, Monochoria vaginalis (Monochoria vaginalis; 1 g a.i./10a)	herbicidal efficacy, Monochoria vaginalis (Monochoria vaginalis; 5 g a.i./10a)	herbicidal efficacy, Scirpus juncoides (Scirpus juncoides; 1 g a.i./10a)	herbicidal efficacy, Scirpus juncoides (Scirpus juncoides; 5 g a.i./10a)	herbicidal efficacy, Digitaria ciliaris (Digitaria ciliaris [2]; 5 g a.i./10a)	herbicidal efficacy, Digitaria ciliaris (Digitaria ciliaris [2]; 10 g a.i./10a)	herbicidal efficacy, Amaranthus retroflexus (Amaranthus retroflexus [3]; 5 g a.i./10a)	herbicidal efficacy, Amaranthus retroflexus (Amaranthus retroflexus [3]; 10 g a.i./10a)	herbicidal efficacy, Chenopodium alubum (Chenopodium album [4])	herbicidal efficacy, Chenopodium album (Chenopodium album [4])	herbicidal efficacy, Digitaria ciliaris (Digitaria ciliaris [5]; 5 g a.i./10a)	herbicidal efficacy, Digitaria ciliaris (Digitaria ciliaris [5]; 10 g a.i./10a)	herbicidal efficacy, Amaranthus retroflexus (Amaranthus retroflexus [6]; 5 g a.i./10a)	herbicidal efficacy, Amaranthus retroflexus (Amaranthus retroflexus [6]; 10 g a.i./10a)	other results
N#Cc1cnn(-c2nn3c(c2Cl)CCCC3)c1NC(=O)CCCCl [Control agent 1.37, reference compound]	2 (2: 20% to less than 30%)	2 (2: 20% to less than 30%)	–	–	–	–	–	–	–	–	–	–	–	–	–	–	–	–	–	–	–
CCCC(=O)Nc1c(C#N)cnn1-c1nn2c(c1Cl)CCCC2 [Control agent 4.188, reference compound]	2 (2: 20% to less than 30%)	2 (2: 20% to less than 30%)	0 (0 (exponent): 0% to less than 10% (growth inhibition rate))	4 (4: 40% to less than 50%)	2 (2: 20% to less than 30%)	3 (3: 30% to less than 40%)	3 (3: 30% to less than 40%)	3 (3: 30% to less than 40%)	0 (0 (exponent): 0% to less than 10% (growth inhibition rate))	1 (1: 10% to less than 20%)	1 (1: 10% to less than 20%)	2 (2: 20% to less than 30%)	4 (4: 40% to less than 50%)	5 (5: 50% to less than 60%)	3 (3: 30% to less than 40%)	5 (5: 50% to less than 60%)	0 (0 (exponent): 0% to less than 10% (growth inhibition rate))	1 (1: 10% to less than 20%)	4 (4: 40% to less than 50%)	4 (4: 40% to less than 50%)	herbicidal efficacy, Chenopodium album (Chenopodium album [7]; 5 g a.i./10a): 2 (2: 20% to less than 30%); herbicidal efficacy, Chenopodium album (Chenopodium album [7]; 10 g a.i./10a): 3 (3: 30% to less than 40%)
CCCCC(=O)Nc1c(C#N)cnn1-c1nn2c(c1Cl)CCCC2 [Control agent 4.191, reference compound]	1 (1: 10% to less than 20%)	1 (1: 10% to less than 20%)	0 (0 (exponent): 0% to less than 10% (growth inhibition rate))	3 (3: 30% to less than 40%)	2 (2: 20% to less than 30%)	2 (2: 20% to less than 30%)	2 (2: 20% to less than 30%)	2 (2: 20% to less than 30%)	0 (0 (exponent): 0% to less than 10% (growth inhibition rate))	1 (1: 10% to less than 20%)	0 (0 (exponent): 0% to less than 10% (growth inhibition rate))	0 (0 (exponent): 0% to less than 10% (growth inhibition rate))	4 (4: 40% to less than 50%)	5 (5: 50% to less than 60%)	3 (3: 30% to less than 40%)	2 (2: 20% to less than 30%)	0 (0 (exponent): 0% to less than 10% (growth inhibition rate))	0 (0 (exponent): 0% to less than 10% (growth inhibition rate))	2 (2: 20% to less than 30%)	3 (3: 30% to less than 40%)	herbicidal efficacy, Chenopodium album (Chenopodium album [7]; 5 g a.i./10a): 3 (3: 30% to less than 40%); herbicidal efficacy, Chenopodium album (Chenopodium album [7]; 10 g a.i./10a): 3 (3: 30% to less than 40%)
